Measured values reported in paper PMC7717691, “Design, synthesis, and anticonvulsant effects evaluation of nonimidazole histamine H3 receptor antagonists/inverse agonists containing triazole moiety” (Journal of Enzyme Inhibition and Medicinal Chemistry, 2020).
Entries after “also recorded” stand apart in the source; their conditions may differ. Where two headings read alike, the source gives them in different places.

Key:
H3R [1] = biological target: T1, H3R (Homo sapiens, UniProt Q9Y5N1); experiment: CRE-luciferase assay, H3R inverse agonist activity (forskolin-stimulated transfected HEK-293 cells); assay type: cell-based; settings: 10 µM forskolin plus compound; seven concentrations; read-out: H3R inverse agonistic activity EC50
T1 construct: expressed in transfected cells
T1 sequence (Q9Y5N1 whole entry): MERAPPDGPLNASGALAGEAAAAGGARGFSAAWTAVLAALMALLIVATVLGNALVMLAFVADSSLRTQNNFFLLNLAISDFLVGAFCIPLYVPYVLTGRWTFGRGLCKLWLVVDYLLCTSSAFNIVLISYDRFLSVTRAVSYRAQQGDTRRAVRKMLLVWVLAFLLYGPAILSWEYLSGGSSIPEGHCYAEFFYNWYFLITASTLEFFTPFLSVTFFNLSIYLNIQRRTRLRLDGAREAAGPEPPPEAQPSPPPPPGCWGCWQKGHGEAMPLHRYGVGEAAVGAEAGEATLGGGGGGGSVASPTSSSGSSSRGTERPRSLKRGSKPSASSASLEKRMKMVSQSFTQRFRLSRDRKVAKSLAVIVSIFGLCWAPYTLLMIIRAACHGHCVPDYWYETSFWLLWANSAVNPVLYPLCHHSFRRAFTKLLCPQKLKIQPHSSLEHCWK
Procedure: The raise of luciferase activity after adding compound represented the inverse agonistic activity. The EC50 was calculated by seven concentrations.

[2] = Rotarod test (neurotoxicity); assay type: in vivo; settings: 10 and 20 mg/kg
Source text: To exclude the possibility that the anticonvulsant activity of 3m was connected with sedative effect, we carried out a rotarod test for 3m.

H3R [3] = biological target: T1, H3R; experiment: CRE-driven luciferase reporter gene assay, H3R antagonistic activity; assay type: cell-based; settings: for % Antagonism 100 nM: 100 nM compound; for % Antagonism 100 nM / % Antagonism 1 μM: HEK-293 cells expressing human H3R, mean ± SD of three experiments; for % Antagonism 1 μM: 1 μM compound
Procedure: cAMP-response element (CRE) reporter gene assay has been extensively used to evaluate the efficacy of GPCR antagonists or agonists. […] Initially, compounds and positive controls were tested at two concentrations (100 nM and 1 µM) to obtain the preliminary investigation of their H3R antagonistic activities. In the assays, the antagonistic activities was positively correlated with the rise of the fluorescence value and indicated by the % antagonism. For the prominent compounds IC50 values were determined at additional assays.
Human thalamus poly-A RNA (Clontech, Palo Alto, CA, USA) was used to clone the hH3R gene by RT-PCR. DNA PCR primers were designed in the light of the reported human histamine receptor gene sequences (GenBank accession no.AF140538). HEK-293 cells were cultured and transfected for the luciferase assay. The detailed procedures were described in the previous publication.
Stable HEK-293 cells, which had been co-transfected with H3R and pCRE-Luc, were seeded in a 96-well plate overnight, and were grown to 90–95% confluence[43]^,[44]. Then the cells were treated with various concentrations of tested compounds in serum-free DMEM and incubated for 20 min. Cells were then stimulated with 100 nM Histamine in serum-free DMEM containing 2 µM Forskolin and incubated for 4 h at 37 °C. Firefly luciferase assay kits (Ken-real, Shanghai, China) were used to determine the luciferase activity.

MES-induced convulsions = MES-induced convulsions model; assay type: in vivo; settings: mice; for protection against MES-induced convulsions (reduction or abolition of THLE): i.p.; for protection against MES-induced convulsions in different doses: Figure 7
Source text: Protection for the mice was defined as the reduction or abolition of the tonic hind limb extension (THLE) in the MES model in mice.
Ear stimulation with alternating current (0.2 s, 60 Hz, 50 mA) was used to induce the seizures in mice. The reduction or abolition of the hind limb tonic extension (THLE) of mice was considered protective against the MES-induced seizures[29]^,[48]. […]

intracellular cAMP = experiment: Effect of compounds administrated alone on the level of intracellular cAMP; assay type: cell-based; settings: compound alone; ANOVA followed by Dunnett's test; Figure 2
Source text: It is well known that H3R is a GPCR coupled with Gαi. When the ligand (histamine) binds to H3R, the dissociated Gαi inhibits the activity of adenylate cyclase (AC) and down-regulates the level of intracellular cAMP. In this CREs driven luciferase assay, when cells were pre-treated by H3R antagonists, the downregulation of cAMP would be inhibited, and the level of intracellular cAMP would regain to the initial level.

MES [4] = settings: cited from earlier work
PTZ [5] = settings: 10 mg/kg i.p., cited from earlier work
MES [6] = settings: cited from earlier work; remark: listed apart in the source
PTZ [7] = settings: cited from earlier work
[8] = test system: human photosensitivity model; settings: dose ranges of 30–60 mg, alone or in combination with other AEDs; cited from earlier work
PTZ-induced convulsions = PTZ-induced convulsions model; assay type: in vivo; settings: mice, PTZ 85 mg/kg s.c.
Procedure: To investigate the anticonvulsive effects, all the target compounds (3a-3q) were screened in the MES-induced and PTZ-induced convulsion models in mice. Compounds were administered intraperitoneally (i.p.) to mice at dosage of 10 mg/kg in the both models. PIT and valproic sodium (VPA) were used as positive controls in the tests.
PTZ (85 mg/kg) was injected subcutaneously to induce seizures. […] The following are the specific meaning of graded scores: score 0 = normal, score 1 = eyelids or facial twitches, score 2 = agitation with body twisting, score 3 = myo-clonic jerks or rearing, score 4 = turn over into one side position or running violently, and score 5 = turn over into back position, limbs tonic extension, or die during the experiment period.

[9] = 10 mg/kg, 30 min before stimulation, vs saline group

## Clc1ccc(-c2nncn2-c2ccc(OCCCN3CCCCC3)cc2)cc1 [Compound 3m, 1-(3-(4-(3-(4-chlorophenyl)-4H-1,2,4-triazol-4-yl)phenoxy)propyl)piperidine]
H3R [1]
  EC50: 129 nM
[2]
  neurotoxicity in rotarod test: no neurotoxicity
other
  melting point: 165 to 167 °C
H3R [3]
  % Antagonism 100 nM: 201.12 ± 12.63%
  % Antagonism 1 μM: 203.92 ± 8.44%
H3R [3]; CRE luciferase assay, HEK-293 cells, Table 1
  IC50: 5.92 nM
MES-induced convulsions; 10 mg/kg i.p. plus RAMH 10 mg/kg i.p.
  protection against MES-induced seizures when co-treated with RAMH: fully abrogated; also recorded: lost its original protective effect
MES-induced convulsions; [9]
  protection against MES-induced convulsions (reduction or abolition of THLE): moderate protection
MES-induced convulsions
  protection against MES-induced convulsions in different doses: dose dependent
Intracellular cAMP
  effect on the level of cAMP when treated alone: no significant effects

## CCC(C)(C)c1ccc(OCCCN2CCCCC2)cc1 [DL-77]
MES [4]; 5, 10, 15 mg/kg
  MES (rats): protection

## O=C1NC(c2ccccc2)(c2ccccc2)C(=O)N1CCCN1CCCCC1 [H3R ligand I]
MES [4]; 1 mg/kg i.p.
  MES (rats): protection
PTZ [5]
  PTZ (rats): protection

## CCCCCCCOc1ccc2c(c1)-c1nncn1CCO2 [II]
MES [6]; 10 mg/kg i.p.
  MES (mice): protection
PTZ [7]; 30 mg/kg i.p.
  PTZ (mice): protection

## Clc1ccc(CCCOCCCN2CCCCC2)cc1 [PIT, Pitolisant, reference compound]
MES [4]; 10 mg/kg i.p., ref not printed (Figure 1)
  MES (rats): protection
[8]
  EEG profile in the human photosensitivity model: favourable EEG profile in a dose-dependent manner
H3R [3]
  % Antagonism 100 nM: 54.16 ± 7.33%
  % Antagonism 1 μM: 246.29 ± 21.48%
MES-induced convulsions; [9]
  protection against MES-induced convulsions (reduction or abolition of THLE): moderately
MES-induced convulsions; 20 mg/kg
  protection against MES-induced convulsions (THLE): fully abrogate the tonic hind limb extension; also recorded: fully abrogate the THLE
MES-induced convulsions
  protection against MES-induced convulsions in different doses: dose-dependently
PTZ [5]; ref not printed (Figure 1)
  PTZ (rats): no protection
PTZ-induced convulsions; 10 mg/kg i.p.
  protection against PTZ-induced convulsions: failed to protect

## S=C(NC1CCCCC1)N1CCC(c2cnc[nH]2)CC1 [Thioperamide]
MES [6]; 10 & 15 mg/kg i.p.
  MES (mice): protection
PTZ [7]; 7.5 & 15 mg/kg i.p.
  PTZ (mice): protection

## CCCC(CCC)C(=O)O [VPA, Valproic acid, reference compound]
MES-induced convulsions; 300 mg/kg
  protection against MES-induced convulsions (reduction or abolition of THLE): potently
PTZ-induced convulsions; 300 mg/kg i.p.
  protection against PTZ-induced convulsions: full protection
